Series [1] deals with Cytochrome P450 2D6 (Homo sapiens, UniProt P10635).
Series [2] deals with T1, Cytochrome P450 1A2 (Homo sapiens, UniProt P05177).
T1 sequence (P05177 whole entry): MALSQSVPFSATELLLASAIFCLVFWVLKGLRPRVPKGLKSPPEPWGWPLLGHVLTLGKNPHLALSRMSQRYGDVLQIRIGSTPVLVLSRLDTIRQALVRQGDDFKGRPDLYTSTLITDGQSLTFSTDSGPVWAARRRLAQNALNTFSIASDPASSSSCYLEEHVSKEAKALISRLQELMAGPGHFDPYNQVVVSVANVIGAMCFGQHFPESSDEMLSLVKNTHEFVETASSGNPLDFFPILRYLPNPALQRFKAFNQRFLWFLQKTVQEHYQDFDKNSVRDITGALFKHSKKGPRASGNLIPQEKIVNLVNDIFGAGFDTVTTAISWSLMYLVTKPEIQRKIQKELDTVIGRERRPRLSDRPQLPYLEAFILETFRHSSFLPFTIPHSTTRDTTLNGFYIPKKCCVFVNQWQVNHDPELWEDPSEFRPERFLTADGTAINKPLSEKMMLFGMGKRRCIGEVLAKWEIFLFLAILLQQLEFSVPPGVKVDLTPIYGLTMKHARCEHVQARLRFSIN

In series [3] the target is Cytochrome P450 3A4 (Homo sapiens, UniProt P08684).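 Note: CYP3A4 tested as one member of a cytochrome P450 panel screen.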
In series [4] the target is Cytochrome P450 2C19 (Homo sapiens, UniProt P33261). Description: Cytochrome panel assay with activity outcomes. Panel member name: p450-cyp2c19 Compounds with AC50 equal or less than 10 uM are considered active. The format is functional.
Series [5] is described as follows: cells. It is filed as functional.
Series [6] in a line: inhibitors of firefly luciferase expression or activity, dose response, H4 neuroglioma cells, luminescence (AID 1990). It is filed as functional, cell-based.
The nature of series [7]: Luminescence Cell-Based Dose Response HTS to Identify Inhibitors of 5'UTR Stem-Loop Driven Prion Protein mRNA Translation in H4 Neuroglioblastoma Cells. [Related pubchem assays: 1827 (Project Summary), 1813 (Primary HTS)]. It is filed as functional.
Series [8] is described as follows: inhibitors of SNCA 5'UTR-driven reporter translation, confirmation, H4 neuroglioma cells, luminescence (AID 1988). It is filed as functional, cell-based.
A short description of series [9]: HEp-2 cell cytotoxicity, dose response, cytotoxicity control for RSV inhibitor project, HTS (AID 2410). It is filed as functional. Particulars: human respiratory syncytial virus.
The nature of series [10]: inhibitors of intracellular T. cruzi replication, confirmation, NIH3T3 host cells, beta-gal luminescence (AID 2044).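 Note: intracellular parasites grown in NIH/3T3 mouse fibroblasts as host cells; luminescent beta-galactosidase reporter signal from transgenic T. cruzi replicating inside host cells; inhibitors lower the luminescence signal.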 The format is functional, cell-based.
Series [11] is described as follows: cytotoxicity toward NIH3T3 fibroblasts, dose response, counter-screen, cell-based, ATP luminescence, mouse fibroblasts (AID 2010).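 Note: cells exposed to compound for about 90 hours before reading.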 It is filed as functional. Particulars: NIH3T3. A general note: A counterscreen serves to expose hits that act by an unwanted route or on another target.

Each structure is given as a SMILES string. “And” between values parts separate entries of the source, which are not always exact repeats. Identical values can stand only once. The source made the active and inactive calls.

As usually defined, the AC50 is the concentration at which the activity in the assay is half-maximal. Usually IC50 stands for the concentration needed to halve the response being measured. A word on the EC50: it is the concentration that produces a half-maximal response. A word on the CC50: it is the concentration that lowers cell viability or growth by half.

Sequence of Cytochrome P450 3A4 (P08684 whole entry): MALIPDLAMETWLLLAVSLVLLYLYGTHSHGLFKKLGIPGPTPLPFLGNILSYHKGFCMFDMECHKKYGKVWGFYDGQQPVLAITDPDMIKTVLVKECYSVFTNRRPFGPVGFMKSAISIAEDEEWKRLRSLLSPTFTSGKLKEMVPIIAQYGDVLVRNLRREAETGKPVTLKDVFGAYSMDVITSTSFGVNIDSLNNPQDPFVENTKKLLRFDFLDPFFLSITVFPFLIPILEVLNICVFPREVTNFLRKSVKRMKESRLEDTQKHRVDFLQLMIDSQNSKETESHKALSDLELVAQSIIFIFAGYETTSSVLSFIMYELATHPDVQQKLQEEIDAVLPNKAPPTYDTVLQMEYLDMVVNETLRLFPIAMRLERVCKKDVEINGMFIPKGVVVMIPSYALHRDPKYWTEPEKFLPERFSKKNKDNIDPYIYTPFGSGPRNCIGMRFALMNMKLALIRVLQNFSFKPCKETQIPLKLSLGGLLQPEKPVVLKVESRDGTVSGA
Sequence of Cytochrome P450 2D6 (P10635 whole entry): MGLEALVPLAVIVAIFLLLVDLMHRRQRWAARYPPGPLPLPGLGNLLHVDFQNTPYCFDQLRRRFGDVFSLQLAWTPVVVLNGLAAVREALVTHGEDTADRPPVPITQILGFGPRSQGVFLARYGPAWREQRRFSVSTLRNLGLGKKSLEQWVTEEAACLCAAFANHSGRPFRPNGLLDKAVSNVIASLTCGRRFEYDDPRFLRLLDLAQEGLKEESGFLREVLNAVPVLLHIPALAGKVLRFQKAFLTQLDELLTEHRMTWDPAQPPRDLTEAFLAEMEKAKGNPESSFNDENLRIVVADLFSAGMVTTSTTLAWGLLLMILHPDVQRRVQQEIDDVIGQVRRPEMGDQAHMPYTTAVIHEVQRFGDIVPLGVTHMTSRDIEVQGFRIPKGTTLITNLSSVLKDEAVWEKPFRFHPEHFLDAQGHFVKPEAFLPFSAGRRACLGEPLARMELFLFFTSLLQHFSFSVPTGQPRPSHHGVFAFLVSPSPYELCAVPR
Sequence of Cytochrome P450 2C19 (P33261 whole entry): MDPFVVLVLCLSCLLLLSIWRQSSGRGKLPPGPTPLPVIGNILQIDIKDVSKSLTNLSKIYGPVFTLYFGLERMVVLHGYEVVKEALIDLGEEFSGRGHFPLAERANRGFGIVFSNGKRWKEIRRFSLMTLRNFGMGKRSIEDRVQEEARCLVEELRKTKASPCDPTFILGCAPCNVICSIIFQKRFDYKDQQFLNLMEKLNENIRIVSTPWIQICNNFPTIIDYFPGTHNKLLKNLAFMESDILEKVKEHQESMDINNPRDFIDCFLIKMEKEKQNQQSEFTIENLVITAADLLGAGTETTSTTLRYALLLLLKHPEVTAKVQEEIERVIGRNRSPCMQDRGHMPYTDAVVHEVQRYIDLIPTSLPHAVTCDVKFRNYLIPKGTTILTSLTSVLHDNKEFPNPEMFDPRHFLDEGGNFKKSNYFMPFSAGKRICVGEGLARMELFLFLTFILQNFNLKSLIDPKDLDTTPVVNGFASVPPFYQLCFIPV

Turning to `COc1ccc(S(=O)(=O)N2CC3C4C=CC(C4)C3C2)cc1` (configuration not stated), in series [1], the AC50 is 15.8 µM (inconclusive).

On to `CNc1ncncc1-c1ccc(C(=O)N(C)C)cc1`, for which the AC50 in series [2] was 15.8 µM (inconclusive).

In the case of `CN(C)c1ncnc2ccc(-c3ccoc3)cc12`, the results for the concentration at half-maximal activity (AC50) in series [3] and in series [4] (read-out: AC50) were 12.6 µM (inconclusive) and 39.8 µM (inconclusive), respectively.

For `COc1ccc2oc(=O)c(/C(C)=N/NC(=O)c3ccncc3)cc2c1`, the IC50 in [5] was 1.31 µM (active).

As to `CCNCCCNCCCNCCCNCC` [BIS(ETHYL)NORSPERMINE], the AC50 entry in [4] was “inconclusive”.

Consider `COc1cccc(C(=O)OCC(=O)c2ccc(Br)s2)c1OC`, for which, in series [5], the IC50 is 29.7 µM (active).

Take `Cc1cc(C)c(S(C)(=O)=O)c(Oc2ccc(C(C)(C)C)cc2)n1`: the AC50 in series [3] is 14.1 µM (inconclusive). Also, the concentration giving a half-maximal response (EC50) was 15.7 µM (active) in series [6], 1.08 µM (active) in [7] and 80.7 µM (active) in [8].

With `Cn1cccc1CNCCc1ccccc1`, the AC50 was 31.6 µM (inconclusive) in [3] and 14.1 µM (inconclusive) in series [4] (read-out: AC50).

In the case of `N[C@@](C(=O)O)(c1ccc(P(=O)(O)O)cc1)C1CC1`, the figures for the AC50 in [4] (read-out: AC50) and in series [2] were 25.1 µM (inconclusive) and 50.1 µM (inconclusive), respectively.

Take `COc1ccccc1N1CCN(C(=O)C(NS(=O)(=O)c2cccs2)c2ccccc2)CC1` (configuration not stated): the AC50 in series [1] is 15.8 µM (inconclusive); in [2], 2.51 µM (inconclusive).

`CC(C)(C(=O)c1cccnc1)c1cccnc1` [METYRAPONE]: the AC50 in series [2] is 12.6 µM (inconclusive).

For `Cc1c(/C=N/CCOCc2ccccc2)cnn1C`, the AC50 in [1] is 25.1 µM (inconclusive); in series [4] (read-out: AC50), 22.4 µM (inconclusive).

As for `CNC(=O)C(=O)NCCc1ccc(Cl)cc1`, the AC50 in [1] is 28.2 µM (inconclusive).

On to `CCCOc1ccc(N2CC(C(=O)Nc3ccccc3F)CC2=O)cc1` (configuration not stated), for which the IC50 in series [5] was 32.1 µM (active).

Regarding `Cc1cccc(Cn2ccc(NC(=O)c3ccc4c(c3)OCO4)n2)c1`, the IC50 in [5] was 2.33 µM (active).

With `COc1cc(-c2nnc(SCC(=O)Nc3ccc4c(c3)OCCO4)o2)cc(OC)c1OC`, the AC50 in series [2] was 15.8 µM (inconclusive).

Consider `Cc1ccccc1-c1nc(NC2CC2)c2ccccc2n1`, for which, in [1], the AC50 is 39.8 µM (inconclusive).

Consider `CN(C)c1ncc2ncc(=O)n(C)c2n1`, for which the AC50 in series [1] was 20 µM (inconclusive).

In the case of `CC1CCCC(NC(=O)c2nnc(O)c3ccccc23)C1C` (configuration not stated), the AC50 in series [4] (read-out: AC50) is 20 µM (inconclusive).

As for `CCOc1ccc2c(ccc(/C=C/c3cc(C)c4cccnc4c3O)[n+]2C)c1`, the AC50 was 3.16 µM (inconclusive) in series [1] and 6.31 µM (inconclusive) in series [2].

Regarding `CN1CCN(c2ncc3ncc(=O)n(Cc4ccc(F)cc4)c3n2)CC1`, the figures for the AC50 in series [3] and in series [2] were 15.8 µM (inconclusive) and 25.1 µM (inconclusive), respectively.

For the compound `COc1cc2nc3c(c([Si](C)(C)C(C)(C)C)c2cc1OC)Cn1c-3cccc1=O`, in series [4] (read-out: AC50), the AC50 was 39.8 µM (inconclusive).

Consider `CCCOc1ccccc1C1CC(=O)NC(C)=C1C(=O)OCC(C)C` (configuration not stated), for which, in series [2], the half-maximal activity concentration (AC50) is 11.2 µM (inconclusive).

Take `Nc1ncccc1OCc1cccc(C(F)(F)F)c1`: the EC50 in series [6], in series [7] and in series [8] was > 120 µM (not active) each time.

As to `N#Cc1cc(-c2ccccc2)cnc1Sc1ccc(Cl)cc1`, the AC50 in series [3] is 12.6 µM (inconclusive); in [1] it was 10 µM (inconclusive).

In the case of `COc1ccccc1CCn1c(=O)c(CCc2ccccc2)nc2cncnc21`, in series [1], the AC50 was 25.1 µM (inconclusive).

As for `CCCCOc1ccc(-c2cn3ccccc3n2)cc1[N+](=O)[O-]`, in series [9], the CC50 was 38.7 µM (active).

Consider `CCCCC(=O)Nc1ccc(C(=O)OC2CCCCC2)cc1`, for which the CC50 in [9] is 22.8 µM (active).

Take `CCOc1cc2c(cc1OCC)-n1cccc1C(c1cc(OC)ccc1F)NC2` (configuration not stated): the 50% cytotoxic concentration (CC50) in [9] is 39.8 µM (active).

On to `CCN(c1ccccc1)S(=O)(=O)c1ccc(OC)c(NC(=O)CNCCc2ccccc2)c1`, for which the CC50 in series [9] is 14.4 µM (active). Also, the EC50 in series [10] was 1.72 µM (active); in series [11] it was > 60 µM (not active).

For the compound `CC(=O)c1ccc(N=Nc2ccc(N(C)C)cc2)cc1`, the EC50 was 4.44 µM (active) in [7] and 4.11 µM (inconclusive) in [8].

For the compound `COc1cccc(NC(=S)N(CCc2nc3cc(C)c(C)cc3[nH]2)Cc2cccnc2)c1`, the AC50 in [1] was 0.126 µM (inconclusive).

As to `COc1ccc(/N=C/c2ccc(CNS(=O)(=O)c3ccc(Cl)cc3)o2)cc1`, the AC50 in [3] was 31.6 µM (inconclusive); in [4] (read-out: AC50) it was 11.2 µM (inconclusive); in series [2] it was 25.1 µM (inconclusive).

On to `C[C@H](CC(C#N)(c1ccccc1)c1ccccc1)N1CCCCC1`, for which the AC50 in series [3] is 3.98 µM (inconclusive); in series [4] (read-out: AC50), 1.58 µM (inconclusive).

As to `CC(C)(C)NC(=O)c1ccc(NC(=O)c2ccccc2-c2ccccc2C(=O)O)cc1`, the IC50 in [5] is 6.42 µM (active).

Regarding `O=c1c(-c2ccc(Cl)cc2)nc2cnc(N3CCOCC3)nc2n1C1CC1`, the AC50 in series [2] was 1.26 µM (inconclusive).

`O=C(Cc1ccc(Br)cc1)Nc1ccccc1Sc1ccccc1`: the AC50 in series [1] is 11.2 µM (inconclusive).

As to `Cn1c(=O)c(-c2ccccc2)nc2cnc(Nc3ccccc3)nc21`, in series [4] (read-out: AC50), the AC50 was 0.0398 µM (inconclusive).

As for `Nc1nc(Br)c2c(F)cccc2c1-c1ccc(F)cc1`, the AC50 in series [4] (read-out: AC50) is 1.12 µM (inconclusive).

With `CC(C)OC(=O)COc1ccc(-c2ccccc2)cc1`, the IC50 in series [5] was 6.13 µM (active).

With `Cc1cc(C)c2cc(CN(CCO)C(=O)Nc3ccc(F)cc3)c(O)nc2c1`, the figures for the EC50 in [6], in [7] and in series [8] were 18.3 µM (active), > 120 µM (not active) and > 120 µM (not active), respectively.

Consider `CC(=O)Nc1cccc(-c2csc(Nc3ccc(Cl)cn3)n2)c1`, for which, in series [9], the CC50 is 9.11 µM (active).

Turning to `CC1CCN(C(=O)c2ccc(-c3ccccc3Cl)o2)CC1`, the concentration for half-maximal inhibition (IC50) in [5] is 33.8 µM (active).

Regarding `Cc1ccc(S(=O)(=O)Nc2cccc(-c3ccc(N4CCCCCC4)nn3)c2)cc1C`, in series [9], the CC50 is 25.8 µM (active).

For the compound `CCS(=O)(=O)Nc1ccc(C2=NN(C(=O)c3ccco3)C(c3cccc(F)c3)C2)cc1` (configuration not stated), the 50% cytotoxic concentration (CC50) in [9] was 32.9 µM (active).

Regarding `Cc1cc(C)nc(SCC(=O)Nc2ccccc2[N+](=O)[O-])n1`, the AC50 in series [2] is 17.8 µM (inconclusive).

On to `COc1ccc(/C=C/C(=O)Nc2cccc(S(=O)(=O)NC3=NCCCCC3)c2)cc1`, for which the CC50 in series [9] is 27.9 µM (active).

For the compound `Cc1cc(C)c(NC(=O)CCN2CCN(Cc3ccccc3)CC2)c(C)c1`, the EC50 in [6], in [7] and in series [8] was > 120 µM (not active) each time.

Take `COc1ccc(-n2c(=O)c(-c3cccc(Cl)c3)nc3cncnc32)cc1`: the AC50 in series [4] (read-out: AC50) is 39.8 µM (inconclusive).

Consider `CCc1cc2c(=O)c(-c3cnn(-c4ccccc4)c3)coc2c(CN2CCOCC2)c1O`, for which, in [2], the AC50 was 15.8 µM (inconclusive).

For `CN(C)C(=O)c1ccc(-c2nccc(-n3ccnc3)n2)cc1`, the AC50 is 3.16 µM (inconclusive) in series [3], 39.8 µM (inconclusive) in series [1] and 39.8 µM (inconclusive) in series [4] (read-out: AC50).

As for `CCN(CC)CCOC(=O)c1ccc(N)cc1` [PROCAINE], the AC50 in [1] was 10 µM (inconclusive) and 39.8 µM (inconclusive).

The values above are taken from ChEMBL document CHEMBL1201862, “PubChem BioAssay data set” (2004).
